Laboratory results taken from PMC9000570, “Thiazole/Thiadiazole/Benzothiazole Based Thiazolidin-4-One Derivatives as Potential Inhibitors of Main Protease of SARS-CoV-2” (Molecules, 2022).

How the values were obtained:
SARS-CoV-2 3CL protease = SARS-CoV-2 3CL protease (Severe acute respiratory syndrome coronavirus 2, UniProt P0DTD1); assay: biochemical; assay type: biochemical; conditions: for IC50: dose range 0.005 to 50 µM
[1] = system: feline infectious peritonitis; conditions: upon treatment of FIP in cats; cited from earlier work
human normal MRC-5 cells = assay: MTT cell viability assay; assay type: cell-based; conditions: 48 h

| Compound | IC50 (SARS-CoV-2 3CL protease) | inhibition at 50 µM (SARS-CoV-2 3CL protease; 50 μM compound) | inhibition of cellular viability (human normal MRC-5 cells; MRC-5, 0.01 μM) | inhibition of cellular viability (human normal MRC-5 cells; MRC-5, 0.1 μM) | inhibition of cellular viability (human normal MRC-5 cells; MRC-5, 1 μM) | inhibition of cellular viability (human normal MRC-5 cells; MRC-5, 10 μM) | also measured |
| --- | --- | --- | --- | --- | --- | --- | --- |
| 3-(5,6-dichlorobenzo[d]thiazol-2-yl)-2-(4-fluorophenyl)thiazolidin-4-one [a3] | > 50 µM |  |  |  |  |  | % Inhibition at 50 μM (SARS-CoV-2 3CL protease; 50 μM compound): 0% |
| CC(C)CC(NC(=O)OCc1ccccc1)C(=O)NC(CC1CCNC1=O)C(O)S(=O)(=O)O (stereo not drawn) [GC376] |  |  |  |  |  |  | side effects [1]: subcutaneous fibrosis, transient stinging at the injection sites, hair loss, and abnormal eruption of permanent teeth in juvenile cats |
| O=C1CSC(c2c(F)cccc2F)N1c1nc2cccc(Cl)c2s1 (stereo not drawn) [a1] | > 50 µM | 0% |  |  |  |  |  |
| O=C1CSC(c2c(F)cccc2Cl)N1c1nc2cccc(Cl)c2s1 (stereo not drawn) [a2] |  | 91.3% | 68.5% | 78.4% | 95.5% | 100% |  |
| O=C1CSC(c2ccc(F)cc2)N1c1nc2ccc(F)cc2s1 (stereo not drawn) [b1] | > 50 µM | 0% |  |  |  |  |  |
| O=C1CSC(c2ccc(F)cc2)N1c1nc2ccc(Cl)cc2s1 (stereo not drawn) [c1] | 4.74 µM | 88% | 31.0% | 43,0% | 36.1% | 80.3% |  |
| O=C1CSC(c2ccc(O)cc2)N1c1nc2ccc(Cl)cc2s1 (stereo not drawn) [c5] | > 50 µM | 7.87% |  |  |  |  | inhibitory activity on main protease (in words) (SARS-CoV-2 3CL protease): inactive |
| O=C1CSC(c2ccc(F)cc2)N1c1nc2c(Cl)cccc2s1 (stereo not drawn) [d1] | > 50 µM | 6.72% |  |  |  |  |  |
| COc1cccc2sc(N3C(=O)CSC3c3ccc([N+](=O)[O-])cc3)nc12 (stereo not drawn) [e2] | > 50 µM | 31.3% |  |  |  |  |  |
| O=C1CSC(c2ccc(F)cc2)N1c1nc2ccc(OC(F)(F)F)cc2s1 (stereo not drawn) [h6] | > 50 µM | 25.2% |  |  |  |  |  |
| O=C1CSC(c2ccc(Cl)cc2)N1c1nc2ccc(OC(F)(F)F)cc2s1 (stereo not drawn) [h8] | > 50 µM | 3.04% |  |  |  |  |  |
| N#Cc1ccc2nc(N3C(=O)CSC3c3c(F)cccc3Cl)sc2c1 (stereo not drawn) [k3] | 0.01 µM | 100% | 57% | 64% | 100% | 100% |  |
| O=C1CSC(c2c(F)cccc2Cl)N1c1nc2ccc(C34CC5CC(CC(C5)C3)C4)cc2s1 (stereo not drawn) [m2] | > 50 µM | 2.79% |  |  |  |  |  |
| O=C1CSC(c2ccc(Br)cc2)N1c1nc2ccc(C34CC5CC(CC(C5)C3)C4)cc2s1 (stereo not drawn) [m11, 3-(6-(adamantan-1-yl)benzo[d]thiazol-2-yl)-2-(4-bromophenyl)thiazolidin-4-one] | > 50 µM | 45% | 65.0% | 81.3% | 89.4% | 100% | inhibitory activity on main protease (in words) (SARS-CoV-2 3CL protease): moderate activity; melting point: 275 to 276 °C |
| Cc1cc(C23CC4CC(CC(C4)C2)C3)cc2sc(N3C(=O)CSC3c3c(F)cccc3F)nc12 (stereo not drawn) [n2] | 9.98 µM | 100% | 20.8% | 73.4% | 90.7% | 100% |  |
